Reference: patent publication US10414759B2, “Phenylthiazoles and uses thereof” (Purdue Research Foundation, priority 2017, dated 2019)
≈ marks a conversion by molar mass, not a printed value. Where two headings read alike, the source gives them in different places.

Tests used:
MRSA (2658 RCMB) = assay: MIC against MRSA (2658 RCMB), broth dilution; assay type: cell-based, Staphylococcus aureus; settings: Staphylococcus aureus; Table 7; initial screening, MRSA (2658 RCMB); read-out: minimum inhibitory concentration (MIC)
Procedure, shortened: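 Broth dilution in cation-adjusted Mueller-Hinton broth with an inoculum of about 5×10^5 CFU/mL (from a 0.5 McFarland suspension), using triplicate serial dilutions. MIC was the lowest concentration with no visible growth by visual inspection, reported as the mean of triplicates.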

MRSA (USA300) = assay: Time-kill assay; assay type: cell-based, Staphylococcus aureus
Procedure: Aliquots (100 μL) were taken from each sample after 2, 4, 6, 8, 10, 12, and 24 hours, serially diluted in phosphate-buffered saline, and transferred to Trypticase soy agar (TSA) (Becton, Dickinson and Company, Sparks, Md., USA) plates. Plates were incubated at 37° C. for at least 16 hours before counting viable CFU/mL to determine the time required to reduce the bacterial cell count by 3-log10.

MRSA NRS119 = assay: MIC/MBC S. aureus strains (Table 8); assay type: cell-based; settings: Staphylococcus aureus
Procedure: (§1) A bacterial solution equivalent to 0.5 McFarland standard was prepared and diluted in cation-adjusted Mueller-Hinton broth (CAMHB) to achieve a bacterial concentration of about 5×10^5 CFU/mL and seeded in 96-well plates. Enterococcus faecium was diluted in brain heart infusion broth. Enterococcus faecalis, Streptococcus pneumonia and Listeria monocytogenes were diluted in tryptone soya broth (TSB).

MRSA NRS123 (USA400) = assay: MIC/MBC S. aureus strains (Table 8); assay type: cell-based; settings: Staphylococcus aureus
Procedure: as §1

MRSA NRS384 (USA300) = assay: MIC/MBC S. aureus strains (Table 8); assay type: cell-based; settings: Staphylococcus aureus
Procedure: as §1

MRSA NRS385 = assay: MIC/MBC S. aureus strains (Table 8); assay type: cell-based; settings: Staphylococcus aureus
Procedure: as §1

MRSA NRS386 = assay: MIC/MBC S. aureus strains (Table 8); assay type: cell-based; settings: Staphylococcus aureus
Procedure: as §1

S. aureus ATCC 6538 = assay: MIC/MBC S. aureus strains (Table 8); assay type: cell-based; settings: Staphylococcus aureus, ATCC6538
Procedure: as §1

S. aureus NRS107 = assay: MIC/MBC S. aureus strains (Table 8); assay type: cell-based, Staphylococcus aureus; settings: Staphylococcus aureus; Table 8; S. aureus NRS107
Procedure: as §1

VRS10 (VRSA) = assay: MIC/MBC S. aureus strains (Table 8); assay type: cell-based; settings: Staphylococcus aureus
Procedure: (§2) The minimum inhibitory concentration (MIC) of tested compounds and control antibiotics were determined using the broth microdilution method in accordance with the recommendations contained in the Clinical and Laboratory Standards Institute guidelines, against methicillin-sensitive (ATCC 6538 and NRS107), methicillin-resistant (MRSA), and vancomycin-resistant (VRSA) Staphylococcus aureus, Staphylococcus epidermidis, Enterococcus faecalis, E. faecium, Listeria monocytogenes, and Streptococcus pneumoniae clinical isolates. A bacterial solution equivalent to 0.5 McFarland standard was prepared and diluted in cation-adjusted Mueller-Hinton broth (CAMHB) to achieve a bacterial concentration of about 5×10^5 CFU/mL and seeded in 96-well plates. Enterococcus faecium was diluted in brain heart infusion broth. Enterococcus faecalis, Streptococcus pneumonia and Listeria monocytogenes were diluted in tryptone soya broth (TSB). Compounds and control drugs were added in the first row of 96-well plates and serially diluted (to achieve a concentration gradient ranging from 128 to 1 μg/mL). Plates were then incubated aerobically at 37° C. for at least 18 hours. The minimum bactericidal concentration (MBC) of the active compounds was tested by plating 5 μL from wells with no growth onto Tryptic soy agar (TSA) plates.

VRS12 (VRSA) = assay: MIC/MBC S. aureus strains (Table 8); assay type: cell-based; settings: Staphylococcus aureus
Procedure: as §2

[1] = tested on: Enterococcus faecium ATCC 700221 (VRE); assay: MIC/MBC Gram-positive pathogens (Table 9); assay type: cell-based
Procedure: as §2

[2] = tested on: Cephalosporin-resistant Streptococcus pneumoniae ATCC 51916; assay: MIC/MBC Gram-positive pathogens (Table 9); assay type: cell-based; settings: ATCC51916
Procedure: as §1

[3] = tested on: Enterococcus faecalis ATCC 51299 (VRE); assay: MIC/MBC Gram-positive pathogens (Table 9); assay type: cell-based
Procedure: as §1

[4] = tested on: Listeria monocytogenes ATCC 19111; assay: MIC/MBC Gram-positive pathogens (Table 9); assay type: cell-based
Procedure: as §1

[5] = tested on: Methicillin-resistant Staphylococcus epidermidis NRS101; assay: MIC/MBC Gram-positive pathogens (Table 9); assay type: cell-based
Procedure: as §1

[6] = tested on: Methicillin-resistant Streptococcus pneumoniae ATCC 700677; assay: MIC/MBC Gram-positive pathogens (Table 9); assay type: cell-based; settings: ATCC700677
Procedure: as §1

[7] = tested on: human colorectal (Caco-2) cell; assay: In vitro cytotoxicity against Caco-2 cells (MTS); assay type: cell-based; settings: at 32 μg/mL
Procedure: Tested compounds were assayed (at concentrations of 16, 32, and 64 μg/mL) against a human colorectal (Caco-2) cell to determine the potential toxic effect to mammalian cells in vitro. Briefly, cells were cultured in Dulbecco's Modified Eagle Medium (DMEM) supplemented with 20% fetal bovine serum (FBS), non-essential amino acids (1×), and penicillin-streptomycin at 37° C. with CO2 (5%). Control cells received DMSO alone at a concentration equal to that in drug-treated cell samples. The cells were incubated with the compounds (in triplicate) in a 96-well plate at 37° C. with CO2 (5%) for two hours. The assay reagent MTS 3-(4,5-dimethylthiazol-2-yl)-5-(3-carboxymethoxyphenyl)-2-(4-sulfophenyl)-2H-tetrazolium) (Promega, Madison, Wis., USA) was subsequently added and the plate was incubated for four hours. Absorbance readings (at OD490) were taken using a kinetic microplate reader (Molecular Devices, Sunnyvale, Calif., USA). The quantity of viable cells after treatment with each compound was expressed as a percentage of the viability of DMSO-treated control cells (average of triplicate wells±standard deviation). The toxicity data was analyzed via a two-way ANOVA, with post hoc Sidak's multiple comparisons test (P<0.05), utilizing GraphPad Prism 6.0 (GraphPad Software, La Jolla, Calif.).

NRS119 (MRSA) = assay: MIC/MBC clinical isolate panel (Table 3); assay type: cell-based, S. aureus; settings: Staphylococcus aureus
Procedure: (§3) Bacteria were cultured in cation-adjusted Mueller Hinton broth in a 96-well plate. Compounds, using triplicate samples, were added to the plate and serially diluted. […] Plates were visually inspected and the MIC was categorized as the concentration at which no visible growth of bacteria was observed. The average of triplicate MIC determinations is reported.
as §1

NRS123 (MRSA USA400) = assay: MIC/MBC clinical isolate panel (Table 3); assay type: cell-based, S. aureus; settings: Staphylococcus aureus
Procedure: as §3, §1

NRS382 (MRSA USA100) = assay: MIC/MBC clinical isolate panel (Table 3); assay type: cell-based, S. aureus; settings: Staphylococcus aureus
Procedure: as §3, §1

NRS383 (MRSA USA200) = assay: MIC/MBC clinical isolate panel (Table 3); assay type: cell-based, S. aureus; settings: Staphylococcus aureus
Procedure: as §3, §1

NRS384 (MRSA USA300) = assay: MIC/MBC clinical isolate panel (Table 3); assay type: cell-based, S. aureus; settings: Staphylococcus aureus
Procedure: as §3, §1

NRS72 (MSSA) = assay: MIC/MBC clinical isolate panel (Table 3); assay type: cell-based, S. aureus; settings: Staphylococcus aureus
Procedure: as §3, §1

VRSA10 = assay: MIC/MBC clinical isolate panel (Table 3); assay type: cell-based, S. aureus; settings: Staphylococcus aureus
Procedure: as §3, with “MRSA clinical isolates, and vancomycin-resistant Staphylococcus aureus (VRSA) strain were obtained through the Network of Antimicrobial Resistance in Staphylococcus aureus (NARSA) program. In addition, vancomycin-resistant Enterococcus faecium (VRE) strain was obtained from the ATCC. Bacteria” for “Bacteria”
as §2

VRE ATCC 700221 = assay: MIC/MBC clinical isolate panel (Table 3); assay type: cell-based, Enterococcus faecium; settings: Enterococcus
Procedure: as §3, with “MRSA clinical isolates, and vancomycin-resistant Staphylococcus aureus (VRSA) strain were obtained through the Network of Antimicrobial Resistance in Staphylococcus aureus (NARSA) program. In addition, vancomycin-resistant Enterococcus faecium (VRE) strain was obtained from the ATCC. Bacteria” for “Bacteria”
as §2

[8] = tested on: methicillin-sensitive S. aureus (MSSA), MRSA and VRSA strains; assay: MIC/MBC summary over the S. aureus strain panel; assay type: cell-based
Procedure: as §2

[9] = tested on: MRSA USA300 (NRS384) biofilm; assay: MRSA biofilm eradication, microtiter dish biofilm formation assay; assay type: cell-based, Staphylococcus aureus
Procedure: The bacterial suspension was removed and compounds were added at concentrations ranging from 128 to 1 μg/mL in TSB. Compounds were incubated with the biofilm at 37° C. for 24 hours. In order to quantify the biofilm mass, the bacterial suspension was removed and wells were washed with phosphate-buffered saline to remove planktonic bacteria. An aliquot of 0.1% crystal violet was added to each well to stain biofilm mass. After 30 minutes, wells were washed with sterile water and dried. Wells were de-stained using 100% ethanol prior to quantifying biofilm mass using a spectrophotometer (OD595). Data are presented as percent eradication of MRSA USA300 biofilm for each test agent relative to the negative (DMSO) control wells. Data were analyzed using two-way ANOVA with post-hoc Sidak's test for multiple comparisons (P<0.05).

[10] = tested on: methicillin-sensitive S. aureus (MSSA), MRSA and VRSA strains; settings: literature (Moran, N. Engl. J. Med. 2006); cited from earlier work
[11] = ATCC19111, Table 9, Listeria monocytogenes ATCC 19111

## Cc1nc(-c2ccc(C(C)(C)C)cc2)sc1-c1ccnc(NC(=N)c2cccnc2)n1 [Compound 63, N-(4-(2-(4-(tert-Butyl)phenyl)-4-methylthiazol-5-yl)pyrimidin-2-yl) nicotinimidamide]
MRSA (2658 RCMB)
  MIC: 0.78 µg/mL (≈ 1.82 µM)
MRSA (USA300); MRSA, 3.0×MIC
  bactericidal / bacteriostatic behaviour in time-kill assay, in words: bacteriostatic activity
MRSA (USA300); over 24 hours
  decrease in MRSA CFU: 2.3 log
MRSA NRS119
  MBC: 4 µg/mL (≈ 9.33 µM)
  MIC: 4 µg/mL (≈ 9.33 µM)
MRSA NRS123 (USA400)
  MBC: 4 µg/mL (≈ 9.33 µM)
  MIC: 4 µg/mL (≈ 9.33 µM)
MRSA NRS384 (USA300)
  MBC: 4 µg/mL (≈ 9.33 µM)
  MIC: 4 µg/mL (≈ 9.33 µM)
MRSA NRS385
  MBC: 4 µg/mL (≈ 9.33 µM)
  MIC: 4 µg/mL (≈ 9.33 µM)
MRSA NRS386
  MBC: 4 µg/mL (≈ 9.33 µM)
  MIC: 4 µg/mL (≈ 9.33 µM)
S. aureus ATCC 6538
  MBC: 4 µg/mL (≈ 9.33 µM)
  MIC: 4 µg/mL (≈ 9.33 µM)
S. aureus NRS107
  MBC: 4 µg/mL (≈ 9.33 µM)
  MIC: 4 µg/mL (≈ 9.33 µM)
VRS10 (VRSA); Table 8, VRS10 (VRSA), read-out: MBC
  MBC: 4 µg/mL (≈ 9.33 µM)
VRS10 (VRSA); Table 8, VRS10 (VRSA), read-out: MIC
  MIC: 4 µg/mL (≈ 9.33 µM)
VRS12 (VRSA); Table 8, VRS12 (VRSA), read-out: MBC
  MBC: 4 µg/mL (≈ 9.33 µM)
VRS12 (VRSA); Table 8, VRS12 (VRSA), read-out: MIC
  MIC: 4 µg/mL (≈ 9.33 µM)
[1]; Table 9, Enterococcus faecium ATCC 700221 (VRE), read-out: MIC
  MIC: 8 µg/mL (≈ 18.7 µM)
[2]
  MBC: 8 µg/mL (≈ 18.7 µM)
  MIC: 4 µg/mL (≈ 9.33 µM)
[3]; Table 9, Enterococcus faecalis ATCC 51299 (VRE)
  MIC: 8 µg/mL (≈ 18.7 µM)
[4]; [11]
  MBC: 64 µg/mL (≈ 149 µM)
  MIC: 4 µg/mL (≈ 9.33 µM)
[4]; text b122
  MBC values relative to MIC values against L. monocytogenes: more than three-fold higher
[5]
  MBC: > 64 µg/mL
  MIC: 64 µg/mL (≈ 149 µM)
[6]
  MBC: 8 µg/mL (≈ 18.7 µM)
  MIC: 4 µg/mL (≈ 9.33 µM)
[7]
  tolerability to human colorectal cells, in words: highly tolerable

## CN[C@H](CC(C)C)C(=O)N[C@H]1C(=O)N[C@@H](CC(N)=O)C(=O)N[C@H]2C(=O)N[C@H]3C(=O)N[C@H](C(=O)N[C@H](C(=O)O)c4cc(O)cc(O)c4-c4cc3ccc4O)[C@H](O)c3ccc(c(Cl)c3)Oc3cc2cc(c3O[C@@H]2O[C@H](CO)[C@@H](O)[C@H](O)[C@H]2O[C@H]2C[C@](C)(N)[C@H](O)[C@H](C)O2)Oc2ccc(cc2Cl)[C@H]1O [Vancomycin, vancomycin, reference compound]
NRS119 (MRSA)
  MIC: 1 µg/mL (≈ 0.69 µM)
NRS123 (MRSA USA400)
  MIC: 1 µg/mL (≈ 0.69 µM)
NRS382 (MRSA USA100)
  MIC: 1 µg/mL (≈ 0.69 µM)
NRS383 (MRSA USA200)
  MIC: 1 µg/mL (≈ 0.69 µM)
NRS384 (MRSA USA300)
  MIC: 1 µg/mL (≈ 0.69 µM)
NRS72 (MSSA)
  MIC: 2 µg/mL (≈ 1.38 µM)
VRSA10
  MBC: > 64 µg/mL
  MIC: > 64 µg/mL
VRE ATCC 700221
  MBC: > 64 µg/mL
  MIC: > 64 µg/mL
MRSA (USA300); 3.0×MIC
  time to three-log10 reduction in the initial inoculum of MRSA: 24 hours
MRSA (USA300); MRSA US300, 3.0×MIC
  time required to reduce the MRSA inoculum to zero colony forming units: 24 h
VRS10 (VRSA); VRSA
  MBC: > 64 µg/mL
  MIC: > 64 µg/mL
VRS12 (VRSA); VRSA
  MBC: > 64 µg/mL
  MIC: > 64 µg/mL
[1]; Enterococcus faecium
  MBC: > 64 µg/mL
  MIC: > 64 µg/mL
[3]; Enterococcus faecalis
  MBC: 64 µg/mL (≈ 44.2 µM)
[8]
  MIC range against MRSA: 1 to 2 µg/mL
[9]; at 1×MIC
  MRSA biofilm mass disrupted: 3%
[9]; at 32×MIC
  reduction of MRSA biofilm mass: 34%

## CCO/N=C(\C(=O)N[C@@H]1C(=O)N2C(C(=O)[O-])=C(Sc3nc(-c4cc[n+](C)cc4)cs3)CS[C@H]12)c1nsc(N)n1 [cefatroline]
[10]
  MIC range against MRSA and VRSA, reported: 0.5 to 4 µg/mL
